This passage reports IC50 results from article PMC6518791, “Gluconate suppresses seizure activity in developing brains by inhibiting CLC-3 chloride channels” (Molecular Brain, 2019).

Each structure is given as a SMILES string.

The target in the experiment is T1, CLC-3 Cl^− channels (neonatal mouse hippocampal CA3 pyramidal neurons) (Mus musculus, UniProt P51791).
T1 construct: gene Clcn3; native channel, CA3 pyramidal neurons in hippocampal slices (P10-12); current largely absent in Clcn3-/- neurons
T1 sequence (P51791 1-818): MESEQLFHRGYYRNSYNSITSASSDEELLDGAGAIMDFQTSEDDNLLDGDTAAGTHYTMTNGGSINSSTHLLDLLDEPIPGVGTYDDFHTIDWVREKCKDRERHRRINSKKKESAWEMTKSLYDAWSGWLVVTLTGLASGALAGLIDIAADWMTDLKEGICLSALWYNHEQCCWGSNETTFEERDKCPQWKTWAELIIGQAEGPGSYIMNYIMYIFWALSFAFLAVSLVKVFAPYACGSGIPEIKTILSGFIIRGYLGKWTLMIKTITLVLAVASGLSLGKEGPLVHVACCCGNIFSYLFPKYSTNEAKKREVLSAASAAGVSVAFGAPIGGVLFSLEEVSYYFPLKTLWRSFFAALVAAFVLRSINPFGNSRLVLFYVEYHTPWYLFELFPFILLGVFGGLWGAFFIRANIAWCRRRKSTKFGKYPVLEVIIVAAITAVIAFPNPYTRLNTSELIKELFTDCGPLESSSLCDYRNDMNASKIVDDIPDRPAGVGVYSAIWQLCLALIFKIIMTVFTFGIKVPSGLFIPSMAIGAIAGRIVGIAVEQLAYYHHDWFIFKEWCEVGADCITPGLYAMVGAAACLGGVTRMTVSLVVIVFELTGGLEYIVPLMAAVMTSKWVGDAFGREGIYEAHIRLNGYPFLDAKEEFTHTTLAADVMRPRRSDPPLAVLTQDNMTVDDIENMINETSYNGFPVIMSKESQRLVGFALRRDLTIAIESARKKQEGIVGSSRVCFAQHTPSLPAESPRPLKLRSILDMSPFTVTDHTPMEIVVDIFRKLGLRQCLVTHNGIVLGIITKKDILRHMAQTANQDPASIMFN
Briefly: whole-cell patch clamp, voltage-dependent Cl- current in brain slices. The settings on record: total neuronal Cl- current, no knockout control told.

In turn, `C[C@@H](O)CC(=O)O` [β-HB] yielded a 50% inhibitory concentration (IC50) of about 6.2 mM.
